According to US20030130121A1, “Novel bacterial isolate and the preparation and use of its active metabolites” (priority 1999, published 2003):
Values after ≈ are worked out from the molar mass of the structure shown.

How the values were obtained:
[1] = tested on: S. sclerotiorum sclerotia; assay: Suppression of apothecial formation - microtiter plate assay 2; type: cell-based, Sclerotinia sclerotiorum; conditions: S. sclerotiorum; qualitative
Method: Twenty four-well microtiter plates were used to test the effect of the purified metabolites on apothecial formation in a concentration range between 0.01 μg ml^−1 and 100 μg ml^−1. To obtain respective concentrations of tested metabolites, the appropriate volume out of the respective metabolite stock solutions of 100 μg ml^−1, 10 μg ml^−1 and 1 μg ml^−1, dissolved in acetonitrile, was distributed into the wells and the solvent was then evaporated. Thereupon, the metabolites were dissolved in sterile H2O and one, or in some tests two, preconditioned sclerotia were placed into each well. Tests were done in triplicate and controls were sclerotia placed in sterile water only.
(§1) The activity of haterumalide A, B and E, and of pyrrolnitrin to inhibit the spore germination of A. fumigatus, F. culmorum, F. oxysporum, H. annosum, M. canis, P. ultimum and S. sclerotiorum as well as the inhibition of the C. albicans growth was tested by using the microtiter plate assay 1 described in Example 7. The effect on apothecial formation of S. sclerotiorum sclerotia was assayed by using microtiter plate assay 2 described in Example 7.

[2] = tested on: three classes of fungi other than Oomycetes; conditions: Strobel et al. (1999); inhibition of mycelial growth; cited from earlier work
S. sclerotiorum mycelium = assay: Suppression of S. sclerotiorum mycelial growth, susceptibility test discs on PDA; type: cell-based, Sclerotinia sclerotiorum
Method: For testing effects of haterumalide A, halves of surface sterilized and bisected sclerotia were placed in the center PDA plates (9 cm in diameter) to initiate mycelial growth of S. sclerotiorum. The metabolite, at a concentration from 0.05 to 5 μg ml^−1 diluted in MeOH/H2O (1:1), was then spotted directly onto sterile antimicrobial susceptibility test discs (Oxoid Ltd) located at four equidistant places, giving a total of 0.2 to 20 μg ml^−1 compound per one Petri plate. The treatments were performed in triplicate. Zones of inhibition of mycelial growth were measured after 4 days and reduction of mycelial growth was calculated as a percentage of MeOH/H2O controls.

M. canis macroconidia = assay: Suppression of spore germination - microtiter plate assay 1; type: cell-based, Microsporum canis var. canis; conditions: Microsporum canis, read-out: Minimal Inhibitory Concentration (MIC) to totally inhibit spore germination
Method: (§2) To obtain the A. fumigatus conidiospores, the fungus was grown on ME slants for about 2 weeks at 28° C. The F. culmorum and F. oxysporum conidia, the H. annosum basidiospores, the M. canis macroconidia were produced by inoculating fungal plugs on Corn Meal Agar plates (CMA, Difco Ltd.), Hagem Agar plates (5 g glucose, 5 g ME, 0.5 g NH4NO3, 0.5 g KH2PO4, 0.5 g MgSO4×7H2O, 20 g Agar in 1000 ml deionized H2O) and Oat Meal Agar plates (60 g oat meal, 12.5 g Agar in 1000 ml deionized H2O), respectively, for a period of 5 to 10 days at 25° C. Ascospores of S. sclerotiorum were collected during their dispersal from apothecia by entrapping them on the surface of a water agar (12 g Bacto Agar (Difco Ltd)), 1000 ml H2O). Mature spores were then scraped off or washed out from the surface of the agar plates, with 0,5% Bacto Peptone (Difco Ltd) supplemented with 0.01% Tween 80. The P. ultimum sporangia were obtained by. growing the fungus on grass blades (Martin, 1992). The C. albicans stock culture of 1.0×10^6 cfu ml^−1 was prepared from a 24-hours old culture grown on Yeast Malt Agar plates (YM Agar, Difco Ltd) at 37° C. by suspending it in 0.5% Bacto Peptone and adjusting the optical density of this culture to an absorbance of 0.5 at 600 nm. The spore concentration was counted by using a Bürker chamber, and stock spore suspensions were stored at −70 ° C. for further use. The spore concentrations in respective stock suspensions, as well as the spore concentrations and media to culture fungi in a microtiter plate assay, are listed in Table 2 below.
(§3) To follow the activity during purification, HPLC-fractions to be tested were directly collected to 96-well microtiter plates by using a fraction collector (FC 204, Gilson), and mainly the activity to inhibit the germination of F. culmorum conidia and S. sclerotiorum ascospores was tested. […] The solvents were always evaporated, and one hundred μl of spore suspension, suspended in the appropriate media as listed in Table 2, were then distributed into each well. Depending on the fungus tested, the spore germination was monitored after 24 to 96 hours of incubation at 25° C. in darkness except for A. fumigatus and C. albicans which were incubated at 28 ° C. and 37 ° C. Controls were spores suspended in respective culturing media and culturing media only. All tests were done in triplicate and repeated at least twice.
The activity of haterumalide A, B and E, and of pyrrolnitrin to inhibit the spore germination of A. fumigatus, F. culmorum, F. oxysporum, H. annosum, M. canis, P. ultimum and S. sclerotiorum as well as the inhibition of the C. albicans growth was tested by using the microtiter plate assay 1 described in Example 7. […]

F. oxysporum conidia = assay: as above; type: cell-based; conditions: Fusarium oxysporum, read-out: Minimal Inhibitory Concentration (MIC) to totally inhibit spore germination
Method: as §2, §3, §1

P. ultimum sporangia = assay: as above; type: cell-based; conditions: Globisporangium ultimum, read-out: Minimal Inhibitory Concentration (MIC) to totally inhibit spore germination
Method: as §2, §3, §1

F. culmorum conidia = assay: as above; type: cell-based; conditions: Fusarium culmorum, read-out: Minimal Inhibitory Concentration (MIC) to totally inhibit spore germination
Method: as §2, §3, §1

[3] = tested on: A. fumigatus conidiospores; assay: as above; type: cell-based; conditions: Aspergillus fumigatus, read-out: Minimal Inhibitory Concentration (MIC) to totally inhibit spore germination
Method: as §2, §3, §1

H. annosum basidiospores = assay: as above; type: cell-based; conditions: Heterobasidion annosum, read-out: Minimal Inhibitory Concentration (MIC) to totally inhibit spore germination
Method: as §2, §3, §1

[4] = tested on: S. sclerotiorum sclerotia; assay: Viability of recovered sclerotia; type: cell-based, Sclerotinia sclerotiorum
Method: The sclerotia were placed in 100 ml of deionized water for 10 minutes and subsequently. washed with running deionized water for 10 minutes. They were then transferred onto moistened filter paper in sealed Petri dishes and placed under light conditions suitable for induction of apothecial formation. […] These sclerotia were surface disinfected in 70% ethanol for 2 minutes, rinsed in sterile deionized water, bisected, transferred to PDA in Petri dishes, and observed for mycelial growth after 5 days.
All the preparations were prepared in such a way that their relative concentrations corresponded to those of the bacterial culture, i.e. 1.5×10^9 cfu ml^−1 (non-diluted), 0.75×10^9 cfu ml^−1 (diluted 1:1) and 0.375×10^9 cfu ml^−1 (diluted 1:3), and their apothecial suppressive activity was compared to the effect of such bacterial cultures tested simultaneously. Three Petri plates per treatment were used with sclerotia treated with deionized water, 50, 25 and 12, 5% strength TSB and 1, 0.5 and 0.25% methanol (MeOH) in deionized water, as controls. Inclusion of methanol controls reflected residual concentrations of methanol in the ethyl acetate extratct and aqueous phase. The suppression of apothecial formation after the treatment with various culture preparations was transformed to values of apothecia formed per one sclerotium as a percentage of water control. Sclerotia with suppressed apothecial formation were retrieved and their viability was tested as described above (Example 8).

[5] = tested on: S. sclerotiorum ascospores; assay: Suppression of spore germination - microtiter plate assay 1; type: cell-based, Sclerotinia sclerotiorum
Method: as §2, §3, §1

SMILES: CC(=O)O[C@H]1CC(=O)OC2CC(CC/C(Cl)=C/C/C=C\1C)O[C@H]2[C@H](O)/C=C(\C)CC(=O)O (stereo partly shown) [Haterumalide A]
- inhibition of apothecial formation of sclerotia [1]: ability to inhibit
- activity against three classes of fungi other than Oomycetes [2]: little or no activity
- inhibition of mycelial growth of S. sclerotiorum (S. sclerotiorum mycelium; 0.05 to 0.1 μg ml^−1 per disc, 4 days): did not inhibit
- inhibition of mycelial growth (S. sclerotiorum mycelium; S. sclerotiorum, qualitative): ability to inhibit
- MIC (M. canis macroconidia): 15 µg/mL (≈ 31.9 µM)
- MIC (F. oxysporum conidia): 0.8 µg/mL (≈ 1.7 µM)
- MIC (P. ultimum sporangia): 0.4 µg/mL (≈ 0.849 µM)
- MIC (F. culmorum conidia): 2 µg/mL (≈ 4.25 µM)
- MIC [3]: 5 µg/mL (≈ 10.6 µM)
- MIC (H. annosum basidiospores): 35 µg/mL (≈ 74.3 µM)
- mycelial growth of retrieved sclerotia on PDA plates ([4]; sclerotia treated with 10 μg ml^−1): no mycelial growth
- apothecial formation of retrieved sclerotia on moistened filter paper ([4]; sclerotia treated with 0.5 and 1 μg ml^−1): produced apothecia
- mycelial growth of retrieved sclerotia on PDA plates ([4]; sclerotia treated with 3 and 5 μg ml^−1): produced mycelium
- carpogenic germination of retrieved sclerotia ([4]; sclerotia treated with 3 to 10 μg ml^−1): total inhibition
- inhibition of ascospore germination ([5]; S. sclerotiorum, qualitative): ability to inhibit
- MIC ([5]; Sclerotinia sclerotiorum, read-out: Minimal Inhibitory Concentration (MIC) to totally inhibit spore germination): 0.8 µg/mL (≈ 1.7 µM)
